Columns and labels:
[1] = test system: SK-MEL-28; assay: Growth inhibition of human SK-MEL-28 cells assessed as cell growth at 10 uM incubated for 48 hrs by sulforhodamine B assay; assay type: functional; conditions: SK-MEL-28, 48 h, read-out: Activity
[2] = test system: SK-MEL-2; assay: Growth inhibition of human SK-MEL-2 cells assessed as cell growth at 10 uM incubated for 48 hrs by sulforhodamine B assay; assay type: functional; conditions: SK-MEL-2, 48 h, read-out: Activity
[3] = test system: MDA-MB-435; assay: Growth inhibition of human MDA-MB-435 cells assessed as cell growth at 10 uM incubated for 48 hrs by sulforhodamine B assay; assay type: functional; conditions: MDA-MB-435, 48 h, read-out: Activity
[4] = test system: M14; assay: Growth inhibition of human M14 cells assessed as cell growth at 10 uM incubated for 48 hrs by sulforhodamine B assay; assay type: functional; conditions: M14, 48 h, read-out: Activity
[5] = test system: Malme-3M; assay: Growth inhibition of human MALME-3M cells assessed as cell growth at 10 uM incubated for 48 hrs by sulforhodamine B assay; assay type: functional; conditions: read-out: Activity
[6] = Growth inhibition of human LOXIMVI cells assessed as cell growth at 10 uM incubated for 48 hrs by sulforhodamine B assay; assay type: functional; conditions: LOX IMVI, read-out: Activity
[7] = test system: SNB-75; assay: Growth inhibition of human SNB75 cells assessed as cell growth at 10 uM incubated for 48 hrs by sulforhodamine B assay; assay type: functional; conditions: SNB-75, 48 h, read-out: Activity
[8] = Growth inhibition of human SF539 cells assessed as cell growth at 10 uM incubated for 48 hrs by sulforhodamine B assay; assay type: functional; conditions: SF-539, 48 h, read-out: Activity
[9] = test system: SF-268; assay: Growth inhibition of human SF268 cells assessed as cell growth at 10 uM incubated for 48 hrs by sulforhodamine B assay; assay type: functional; conditions: SF-268, 48 h, read-out: Activity
[10] = test system: SW-620; assay: Growth inhibition of human SW620 cells assessed as cell growth at 10 uM incubated for 48 hrs by sulforhodamine B assay; assay type: functional; conditions: SW-620, 48 h, read-out: Activity
[11] = test system: KM12; assay: Growth inhibition of human KM12 cells assessed as cell growth at 10 uM incubated for 48 hrs by sulforhodamine B assay; assay type: functional; conditions: KM12, 48 h, read-out: Activity
[12] = test system: HCT-116; assay: Growth inhibition of human HCT116 cells assessed as cell growth at 10 uM incubated for 48 hrs by sulforhodamine B assay; assay type: functional; conditions: HCT-116, 48 h, read-out: Activity
[13] = test system: NCI-H522; assay: Growth inhibition of human NCI-H522 cells assessed as cell growth at 10 uM incubated for 48 hrs by sulforhodamine B assay; assay type: functional; conditions: NCI-H522, 48 h, read-out: Activity
[14] = test system: NCI-H23; assay: Growth inhibition of human NCI-H23 cells assessed as cell growth at 10 uM incubated for 48 hrs by sulforhodamine B assay; assay type: functional; conditions: NCI-H23, 48 h, read-out: Activity
[15] = test system: NCI-H226; assay: Growth inhibition of human NCI-H226 cells assessed as cell growth at 10 uM incubated for 48 hrs by sulforhodamine B assay; assay type: functional; conditions: NCI-H226, 48 h, read-out: Activity
[16] = test system: A549; assay: Growth inhibition of human A549/ATCC cells assessed as cell growth at 10 uM incubated for 48 hrs by sulforhodamine B assay; assay type: functional; conditions: A549, 48 h, read-out: Activity
[17] = Growth inhibition of human MOLT4 cells assessed as cell growth at 10 uM incubated for 48 hrs by sulforhodamine B assay; assay type: functional; conditions: MOLT-4, 48 h, read-out: Activity
[18] = test system: HL-60(TB); assay: Growth inhibition of human HL-60(TB) cells assessed as cell growth at 10 uM incubated for 48 hrs by sulforhodamine B assay; assay type: functional; conditions: HL-60, 48 h, read-out: Activity
[19] = test system: UACC-257; assay: Growth inhibition of human UACC257 cells assessed as cell growth at 10 uM incubated for 48 hrs by sulforhodamine B assay; assay type: functional; conditions: UACC-257, 48 h, read-out: Activity
[20] = test system: UACC-62; assay: Growth inhibition of human UACC62 cells assessed as cell growth at 10 uM incubated for 48 hrs by sulforhodamine B assay; assay type: functional; conditions: UACC-62, 48 h, read-out: Activity
[21] = test system: OVCAR-3; assay: Growth inhibition of human OVCAR3 cells assessed as cell growth at 10 uM incubated for 48 hrs by sulforhodamine B assay; assay type: functional; conditions: OVCAR-3, 48 h, read-out: Activity
[22] = test system: OVCAR-4; assay: Growth inhibition of human OVCAR4 cells assessed as cell growth at 10 uM incubated for 48 hrs by sulforhodamine B assay; assay type: functional; conditions: OVCAR-4, 48 h, read-out: Activity
[23] = test system: OVCAR-8; assay: Growth inhibition of human OVCAR8 cells assessed as cell growth at 10 uM incubated for 48 hrs by sulforhodamine B assay; assay type: functional; conditions: OVCAR-8, 48 h, read-out: Activity
[24] = Growth inhibition of human NCI-ADR-RES cells assessed as cell growth at 10 uM incubated for 48 hrs by sulforhodamine B assay; assay type: functional; conditions: read-out: Activity
[25] = test system: 786-0; assay: Growth inhibition of human 786-0 cells assessed as cell growth at 10 uM incubated for 48 hrs by sulforhodamine B assay; assay type: functional; conditions: 786-0, 48 h, read-out: Activity
[26] = test system: CAKI-1; assay: Growth inhibition of human Caki1 cells assessed as cell growth at 10 uM incubated for 48 hrs by sulforhodamine B assay; assay type: functional; conditions: CAKI-1, 48 h, read-out: Activity
[27] = Growth inhibition of human RXF393 cells assessed as cell growth at 10 uM incubated for 48 hrs by sulforhodamine B assay; assay type: functional; conditions: RXF 393, 48 h, read-out: Activity
[28] = test system: SN12C; assay: Growth inhibition of human SN12C cells assessed as cell growth at 10 uM incubated for 48 hrs by sulforhodamine B assay; assay type: functional; conditions: read-out: Activity
[29] = test system: UO-31; assay: Growth inhibition of human UO31 cells assessed as cell growth at 10 uM incubated for 48 hrs by sulforhodamine B assay; assay type: functional; conditions: UO-31, 48 h, read-out: Activity
[30] = test system: PC-3; assay: Growth inhibition of human PC3 cells assessed as cell growth at 10 uM incubated for 48 hrs by sulforhodamine B assay; assay type: functional; conditions: PC-3, 48 h, read-out: Activity
[31] = test system: MDA-MB-231; assay: Growth inhibition of human MDA-MB-231/ATCC cells assessed as cell growth at 10 uM incubated for 48 hrs by sulforhodamine B assay; assay type: functional; conditions: MDA-MB-231, 48 h, read-out: Activity
[32] = Growth inhibition of human Hs 578T cells assessed as cell growth at 10 uM incubated for 48 hrs by sulforhodamine B assay; assay type: functional; conditions: read-out: Activity
[33] = Growth inhibition of human BT549 cells assessed as cell growth at 10 uM incubated for 48 hrs by sulforhodamine B assay; assay type: functional; conditions: BT-549, 48 h, read-out: Activity
[34] = test system: MDA-MB-468; assay: Growth inhibition of human MDA-MB-468 cells assessed as cell growth at 10 uM incubated for 48 hrs by sulforhodamine B assay; assay type: functional; conditions: MDA-MB-468, 48 h, read-out: Activity
[35] = test system: DU-145; assay: Antiproliferative activity against human DU145 cells assessed as cell viability incubated for 72 hrs by MTT assay; assay type: functional, cell-based; conditions: DU-145, 72 h

Row | SMILES | growth at 10 µM [1] | growth at 10 µM [2] | growth at 10 µM [3] | growth at 10 µM [4] | growth at 10 µM [5] | growth at 10 µM [6] | growth at 10 µM [7] | growth at 10 µM [8] | growth at 10 µM [9] | growth at 10 µM [10] | growth at 10 µM [11] | growth at 10 µM [12] | growth at 10 µM [13] | growth at 10 µM [14] | growth at 10 µM [15] | growth at 10 µM [16] | growth at 10 µM [17] | growth at 10 µM [18] | growth at 10 µM [19] | growth at 10 µM [20] | other results
1 | O=C(O)c1c(Sc2ccc(Cl)cc2)c(O)nc2ccccc12 | 99% | 120% | 102% | 107% | 107% | 90.5% | 82.2% | 110% | 114% | 96.9% | 113% | 104% | 81.6% | 92.6% | 106% | 107% | 97.2% | 106% | 122% | 102% | growth at 10 µM [21]: 121%; growth at 10 µM [22]: 98.4%; growth at 10 µM [23]: 115%; growth at 10 µM [24]: 97.8%; growth at 10 µM [25]: 104%; growth at 10 µM [26]: 76.3%; growth at 10 µM [27]: 114%; growth at 10 µM [28]: 95.8%; growth at 10 µM [29]: 68.9%; growth at 10 µM [30]: 93.2%; growth at 10 µM [31]: 95.7%; growth at 10 µM [32]: 88.3%; growth at 10 µM [33]: 124%; growth at 10 µM [34]: 105%; IC50 [35]: > 15 µM
2 | O=c1c2ccc(Cl)cc2sc2c(Cl)nc3ccccc3c12 | 102% | 95.5% | 101% | 106% | 95.9% | 90.5% | 77.9% | 89% | 110% | 99.1% | 111% | 102% | 96.8% | 85.1% | 83.4% | 105% | 98% | 99.3% | 104% | 89.7% | growth at 10 µM [21]: 111%; growth at 10 µM [22]: 87.9%; growth at 10 µM [23]: 102%; growth at 10 µM [24]: 103%; growth at 10 µM [25]: 105%; growth at 10 µM [26]: 94.3%; growth at 10 µM [27]: 103%; growth at 10 µM [28]: 95.9%; growth at 10 µM [29]: 66.1%; growth at 10 µM [30]: 91.6%; growth at 10 µM [31]: 84.3%; growth at 10 µM [32]: 95.1%; growth at 10 µM [33]: 110%; growth at 10 µM [34]: 98.6%; IC50 [35]: > 15 µM

Source: ChEMBL document CHEMBL3627688, “Structure-based hybridization, synthesis and biological evaluation of novel tetracyclic heterocyclic azathioxanthone analogues as potential antitumor agents” (Eur J Med Chem, 2015)
